Source: patent US20240366571A1, “MODULATORS OF SK4 POTASSIUM CHANNEL AND USES THEREOF” (Ramot at Tel-Aviv University Ltd., priority 2022, published 2024)

System: rat model of heart failure (HF) post-myocardial infarction (MI)
Experiment: Rat model of heart failure post-myocardial infarction
Format: in vivo
Details: vs vehicle
Procedure: […] Experimental setup and details are described, for example, in Murninkas et al. Am J Physiol-Heart Circul Physiol. (2021), 320, H713-H24.
Following electrode implantation and animal recovery, baseline EP (electrophysiological) measurements were performed followed by random division of the animals to treatment with the exemplary compound vs. treatment with vehicle.
Masson-trichrome staining: staining was performed according to a standard procedure, as described, for example, in N. Foot, Stain Technology (2009), Volume 8, 1933—Issue 3, 101-110.

[1] = 20 mg/kg daily for 2 weeks from one week post-MI

SMILES: CCCCCCCn1c(=O)oc2ccccc21 [BA6b9, 3-heptylbenzo[d]oxazol-2(3H)-one]
- AF induction [1]: markedly attenuates
- EF (ejection fraction) [1]: does not affect
- total AF duration [1]: markedly attenuates
- LA fibrosis (Masson-trichrome staining after post-MI treatment): reduction
- LA smooth muscle actin (SMA) (after post-MI treatment): reduction
